In US7001921B1, “Cell adhesion inhibitors” (Biogen Idec MA Inc., priority 1995, dated 2006) one finds IC50 data, which are given here for 48 molecules.

A value given as a limit tells only on which side of the number the result lay.

This test addresses T1, VLA4 (Homo sapiens, UniProt P05556+P13612).
T1 construct: endogenous in cells; host or cells: Ramos cells
Description: Inhibition of VLA4-dependent adhesion to BSA-CS1 (labelled Ramos cells). The following applies: binding of BCECF-AM labelled Ramos cells to CS1 peptide-coated wells, 2 mM MnCl2, 30 minutes at room temperature; IC50 range. It counts as cell-based. The source says: For example, the cell adhesion inhibitory activity of these compounds may be measured by determining the concentration of inhibitor required to block the binding of VLA-4-expressing cells to fibronectin- or CS1-coated plates. In this assay microtiter wells are coated with either fibronectin (containing the CS-1 sequence) or CS-1. If CS-1 is used, it must be conjugated to a carrier protein, such as bovine serum albumin, in order to bind to the wells. Once the wells are coated, varying concentrations of the test compound are then added together with appropriately labelled, VLA-4-expressing cells. Alternatively, the test compound may be added first and allowed to incubate with the coated wells prior to the addition of the cells. The cells are allowed to incubate in the wells for at least 30 minutes. Following incubation, the wells are emptied and washed. Inhibition of binding is measured by quantitating the fluorescence or radioactivity bound to the plate for each of the various concentrations of test compound, as well as for controls containing no test compound.
VLA-4-expressing cells that may be utilized in this assay include Ramos cells, Jurkat cells, A375 melanoma cells, as well as human peripheral blood lymophocytes (PBLs). The cells used in this assay may be fluorescently or radioactively labelled.
This assay was used to assess the potency of VLA4-directed inhibitory compounds of this invention.
We dissolved BSA-SMCC (Pierce Chemical, Rockford, Ill.; Catalog # 77115) in H2O at a concentration of 10 mg/mL. [SEQ ID NO:4]: […](“Cys-Tyr-CS1 peptide”), which we synthesized by conventional solid phase chemistry and purified by HPLC, was dissolved in 10 mM HEPES pH 5, 50 mM NaCl and 0.1 mM EDTA also at a concentration of 10 mg/mL. We then mixed 500 μL of BSA-SMCC, 250 μL of Cys-Tyr-CS1 peptide and 75 μL of […] and allowed the conjugation reaction to proceed for 30 minutes. We stopped the reaction by adding 1 μL of beta-mercaptoethanol. Samples were analyzed for cross-linking by SDS-PAGE. This reaction produced multiple molecules of the Cys-Tyr-CS1 peptide conjugate to each BSA molecule.
We coated the wells of a Linbro titertek polystyrene 96-well flat bottom plate (Flow Laboratories, Maclean, Va.; catalog #76-231-05) with 100 μL of the above-described BSA-CS1 solution diluted to 1 μg/mL in 0.05 M NaHCO3 (15 mM NaHCO3, 35 mM Na2CO3) pH 9.2. Some wells were not coated with CS1 in order to assess non-specific cell binding (NSB). The plate was then incubated overnight at 4° C.
Following this incubation, the contents of the wells were removed by inverting and blotting the plate. All of the wells were then blocked with 100 μL of 1% BSA in PBS, 0.02% NaN3, for a minimum of one hour at room temperature.
3. Preparation of Fluorescently Labelled Ramos Cells Ramos cells are grown, maintained and labelled in RPMI 1640 culture medium containing 1% BSA. Just prior to running the assay, we added 2′,7′-bis-(2-carboxyethyl)5 (and -6) carboxyfluorescein acetoxymethyl ester (“BCECF-AM”; Molecular Probes Inc., Eugene, Oreg.; catalog #B-1150) to a final concentration of 2 μM to a culture of Ramos cells (4×10^6 cells/mL). We incubated the cells for 20 minutes at 37° C.
Following labelling, the cells were washed twice in assay buffer (24 mM TRIS, 137 mM NaCl, 2.7 mM KCl, pH 7.4, containing 0.1% BSA and 2 mM glucose) to remove any cations originating from the culture medium. The cells were then resuspended in assay buffer to 4×10^6 cells/mL and 2 mM MnCl2 was added to upregulate VLA4 on the surface of the cells.
Immediately prior to running the assay, we removed the BSA blocking solution from the 96-well plates and washed the wells with 100 μL of assay buffer. We then added to each well 25 μL of test cell adhesion inhibitory compound at 2× the final concentration and 25 μL of the labelled Ramos cells. Final concentrations were selected across a range of anticipated IC50s, usually between 0.01 nM–10 μM. […]

T1 sequence (P13612 34-1032): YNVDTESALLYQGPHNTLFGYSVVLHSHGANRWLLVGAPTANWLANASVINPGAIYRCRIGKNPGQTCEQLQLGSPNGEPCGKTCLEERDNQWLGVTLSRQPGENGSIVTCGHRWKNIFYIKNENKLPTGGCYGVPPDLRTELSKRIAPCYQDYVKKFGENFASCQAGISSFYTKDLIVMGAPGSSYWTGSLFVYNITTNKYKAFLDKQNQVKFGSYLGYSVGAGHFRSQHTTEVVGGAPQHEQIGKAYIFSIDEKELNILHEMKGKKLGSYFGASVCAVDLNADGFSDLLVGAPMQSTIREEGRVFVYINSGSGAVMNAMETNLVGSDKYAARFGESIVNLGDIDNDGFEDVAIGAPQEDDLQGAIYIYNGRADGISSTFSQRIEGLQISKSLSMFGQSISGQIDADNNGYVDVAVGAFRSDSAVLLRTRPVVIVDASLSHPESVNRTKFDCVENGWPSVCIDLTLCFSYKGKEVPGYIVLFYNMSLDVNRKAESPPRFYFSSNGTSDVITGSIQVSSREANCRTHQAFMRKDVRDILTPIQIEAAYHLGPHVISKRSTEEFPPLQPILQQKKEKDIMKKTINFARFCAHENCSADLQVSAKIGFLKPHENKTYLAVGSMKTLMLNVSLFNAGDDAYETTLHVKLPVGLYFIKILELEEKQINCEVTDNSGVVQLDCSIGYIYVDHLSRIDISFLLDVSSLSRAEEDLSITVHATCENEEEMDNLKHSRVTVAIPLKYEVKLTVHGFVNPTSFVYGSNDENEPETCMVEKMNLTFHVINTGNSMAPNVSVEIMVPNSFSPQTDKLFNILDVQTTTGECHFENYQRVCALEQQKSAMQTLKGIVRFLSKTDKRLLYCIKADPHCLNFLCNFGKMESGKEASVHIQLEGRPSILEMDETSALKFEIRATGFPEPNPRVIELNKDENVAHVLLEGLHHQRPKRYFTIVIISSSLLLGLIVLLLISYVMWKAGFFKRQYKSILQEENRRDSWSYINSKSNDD
T1 sequence (P05556 21-798): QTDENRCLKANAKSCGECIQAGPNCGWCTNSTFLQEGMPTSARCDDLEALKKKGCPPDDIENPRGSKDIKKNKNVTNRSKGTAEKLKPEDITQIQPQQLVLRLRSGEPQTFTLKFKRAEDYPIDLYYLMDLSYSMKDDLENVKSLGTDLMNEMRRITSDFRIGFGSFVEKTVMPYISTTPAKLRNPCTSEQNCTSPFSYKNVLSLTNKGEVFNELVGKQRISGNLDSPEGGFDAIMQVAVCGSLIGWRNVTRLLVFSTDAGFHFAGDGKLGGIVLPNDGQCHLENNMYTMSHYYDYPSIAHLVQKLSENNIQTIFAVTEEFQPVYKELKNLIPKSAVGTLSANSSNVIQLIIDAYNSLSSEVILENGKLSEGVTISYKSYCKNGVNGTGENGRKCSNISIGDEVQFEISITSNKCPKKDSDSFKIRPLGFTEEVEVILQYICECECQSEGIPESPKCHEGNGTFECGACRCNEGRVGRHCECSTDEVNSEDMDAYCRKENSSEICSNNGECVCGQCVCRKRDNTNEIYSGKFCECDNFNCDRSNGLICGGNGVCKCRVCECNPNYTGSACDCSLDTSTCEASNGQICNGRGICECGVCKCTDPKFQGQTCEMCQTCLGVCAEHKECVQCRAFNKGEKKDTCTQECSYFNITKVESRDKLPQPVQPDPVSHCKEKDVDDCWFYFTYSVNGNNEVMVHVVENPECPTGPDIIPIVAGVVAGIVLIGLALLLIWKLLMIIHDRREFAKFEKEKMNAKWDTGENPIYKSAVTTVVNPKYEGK

The IC50 is the concentration that inhibits the measured activity by half. Read a high IC50 as weaker potency in that assay. On to `CC(C)CC(NC(=O)Cc1ccccn1)C(=O)NC(CC(=O)O)c1ccccc1` (stereo not drawn) [compound 1004], for which the IC50 was greater than 10 µM. Under `CC(C)CC(NC(=O)Cc1cccnc1)C(=O)NC(CC(=O)O)c1ccccc1` (stereo not drawn) [compound 1005] stands greater than 10 µM.

In turn, `CC(C)CC(NC(=O)Cc1ccc(O)cc1)C(=O)NC(CC(=O)O)c1ccc2c(c1)OCO2` (stereo not drawn) [compound 1006] came in with an IC50 of 0.05 to 10 µM. Under `CC(C)CC(NC(=O)Cc1ccncc1)C(=O)NC(CC(=O)O)c1ccccc1` (stereo not drawn) [compound 1007] stands greater than 10 µM; under `CC(C)CC(NC(=O)c1ccccc1)C(=O)NC(CC(=O)O)c1ccccc1` (stereo not drawn) [compound 1008], greater than 10 µM.

Molecule `CC(C)CC(NC(=O)Cc1ccc(-c2ccccc2)cc1)C(=O)NC(CC(=O)O)c1ccccc1` (stereo not drawn) [compound 1009] registered an IC50 greater than 10 µM. Under `CC(C)CC(NC(=O)Cc1ccc(Cl)cc1)C(=O)NC(CC(=O)O)c1ccccc1` (stereo not drawn) [compound 1010] stands 0.05 to 10 µM. Under `CC(C)CC(NC(=O)Cc1ccc(C(F)(F)F)cc1)C(=O)NC(CC(=O)O)c1ccccc1` (stereo not drawn) [compound 1011] stands greater than 10 µM; under `CC(C)CC(NC(=O)c1c[nH]c2ccccc12)C(=O)NC(CC(=O)O)c1ccccc1` (stereo not drawn) [compound 1014], greater than 10 µM; under `CC(C)CC(NC(=O)Cc1ccc(NC(=O)c2ccccc2)cc1)C(=O)NC(CC(=O)O)c1ccccc1` (stereo not drawn) [compound 1015], 0.05 to 10 µM. Take `CC(C)CC(NC(=O)Cc1ccc(N)cc1)C(=O)NC(CC(=O)O)c1ccccc1` (stereo not drawn) [compound 1016]: the IC50 is greater than 10 µM. As for `CC(C)CC(NC(=O)C1(c2ccccc2)CC1)C(=O)NC(CC(=O)O)c1ccccc1` (stereo not drawn) [compound 1017], the figure is greater than 10 µM; as for `CC(=O)Nc1cccc(CC(=O)NC(CC(C)C)C(=O)NC(CC(=O)O)c2ccccc2)c1` (stereo not drawn) [compound 1018], greater than 10 µM; as for `CC(C)CC(NC(=O)Cc1cccc(NC(=O)c2ccccc2)c1)C(=O)NC(CC(=O)O)c1ccccc1` (stereo not drawn) [compound 1020], greater than 10 µM. As for `CC(C)CC(NC(=O)Cc1cccc2ccccc12)C(=O)NC(CC(=O)O)c1ccccc1` (stereo not drawn) [compound 1021], the figure is 0.05 to 10 µM. As for `CC(C)CC(NC(=O)Cc1ccc2ccccc2c1)C(=O)NC(CC(=O)O)c1ccccc1` (stereo not drawn) [compound 1022], the figure is greater than 10 µM. Consider `CC(C)CC(NC(=O)Cc1ccc(NC(=O)Cc2ccccc2)cc1)C(=O)NC(CC(=O)O)c1ccccc1` (stereo not drawn) [compound 1023], for which the IC50 lay in the range of 0.05 to 10 µM. `CC(C)CC(NC(=O)Cc1ccccc1N)C(=O)NC(CC(=O)O)c1ccccc1` (stereo not drawn) [compound 1024] displayed an IC50 greater than 10 µM.

The molecule `CC(C)CC(NC(=O)Cc1ccccc1NC(=O)c1ccccc1)C(=O)NC(CC(=O)O)c1ccccc1` (stereo not drawn) [compound 1026] had an IC50 greater than 10 µM.

Regarding `CC(C)CC(NC(=O)Cc1ccccc1NC(=O)OCc1ccccc1)C(=O)NC(CC(=O)O)c1ccccc1` (stereo not drawn) [compound 1027], the IC50 was greater than 10 µM. As for `CC(C)CC(NC(=O)Cc1ccc(NC(=O)c2ccccc2N)cc1)C(=O)NC(CC(=O)O)c1ccccc1` (stereo not drawn) [compound 1028], the figure is 0.05 to 10 µM.

`CNC(=O)Nc1ccccc1C(=O)Nc1ccc(CC(=O)NC(CC(C)C)C(=O)NC(CC(=O)O)c2ccccc2)cc1` (stereo not drawn) [compound 1029] had an IC50 greater than 10 µM. Under `CC(C)CC(NC(=O)Cc1cccc(N)c1)C(=O)NC(CC(=O)O)c1ccccc1` (stereo not drawn) [compound 1030] stands greater than 10 µM; under `CC(C)CC(NC(=O)Cc1cccc(NC(=O)OCc2ccccc2)c1)C(=O)NC(CC(=O)O)c1ccccc1` (stereo not drawn) [compound 1031], greater than 10 µM; under `CC(C)CC(NC(=O)Cc1cccc(NS(=O)(=O)c2ccccc2)c1)C(=O)NC(CC(=O)O)c1ccccc1` (stereo not drawn) [compound 1032], greater than 10 µM. Under `CC(C)CC(NC(=O)Cc1ccccc1)C(=O)NC(CC(=O)O)c1ccc2c(c1)CCC2` (stereo not drawn) [compound 1036] stands 0.05 to 10 µM; under `O=C(O)CC(NC(=O)C(Cc1nccs1)NC(=O)Cc1ccc(NC(=O)Nc2ccccc2)cc1)c1ccccc1` (stereo not drawn) [compound 1037], 0.05 to 10 µM; under `CCCC(NC(=O)Cc1ccccc1)C(=O)NC(CC(=O)O)c1ccccc1` (stereo not drawn) [compound 1038], greater than 10 µM. Take `CCCCC(NC(=O)Cc1ccccc1)C(=O)NC(CC(=O)O)c1ccccc1` (stereo not drawn) [compound 1039]: the IC50 was 0.05 to 10 µM. `CCC(C)C(NC(=O)Cc1ccccc1)C(=O)NC(CC(=O)O)c1ccccc1` (stereo not drawn) [compound 1040]: the IC50 lay in the range of 0.05 to 10 µM. As for `O=C(O)CC(NC(=O)C(Cc1ccccc1)NC(=O)Cc1ccccc1)c1ccccc1` (stereo not drawn) [compound 1046], the figure is greater than 10 µM. Under `CC(C)CC(NC(=O)Cc1ccc(NC(=O)Nc2ccccc2)cc1)C(=O)NC(CC(=O)O)c1ccc2c(c1)OCO2` (stereo not drawn) [compound 1050] stands less than 0.05 µM; under `CC(C)CC(NC(=O)CCc1ccc(NC(=O)Nc2ccccc2)cc1)C(=O)NC(CC(=O)O)c1ccccc1` (stereo not drawn) [compound 1052], 0.05 to 10 µM; under `CC(C)CC(C(=O)NC(CC(=O)O)c1ccccc1)N(C)C(=O)Cc1ccc(NC(=O)Nc2ccccc2)cc1` (stereo not drawn) [compound 1053], 0.05 to 10 µM. Under `CC(C)CC(NC(=O)Cc1cccc(NC(=O)Nc2ccccc2)c1)C(=O)NC(CC(=O)O)c1ccccc1` (stereo not drawn) [compound 1054] stands 0.05 to 10 µM. Molecule `CC(C)CC(C(=O)NC(CC(=O)O)c1ccc2c(c1)OCO2)N(C)C(=O)Cc1ccc(NC(=O)Nc2ccccc2)cc1` (stereo not drawn) [compound 1055] gave an IC50 of less than 0.05 µM.

Regarding `COc1cc(CC(=O)NC(CC(C)C)C(=O)NC(CC(=O)O)c2ccc3c(c2)OCO3)ccc1NC(=O)Nc1ccccc1` (stereo not drawn) [compound 1056], the IC50 is less than 0.05 µM. Under `CC(C)CC(NC(=O)Cc1ccc(NC(=O)Nc2ccccc2)cc1)C(=O)NC(CC(=O)O)c1ccccc1` (stereo not drawn) [compound 1060] stands 0.05 to 10 µM. The molecule `CC(C)CC(NC(=O)Cc1ccc(NC(=O)Nc2ccccc2)cc1)C(=O)NC(CC(=O)O)Cc1ccccc1` (stereo not drawn) [compound 1063] showed an IC50 of 0.05 to 10 µM.

In the case of `CNC(=O)Nc1ccc(CC(=O)NC(CC(C)C)C(=O)NC(CC(=O)O)c2ccc3c(c2)OCO3)cc1` (stereo not drawn) [compound 1064], the IC50 fell in the range of 0.05 to 10 µM.

`CC(C)CC(NC(=O)Cc1ccc(NC(=O)NC(C)C)cc1)C(=O)NC(CC(=O)O)c1ccc2c(c1)OCO2` (stereo not drawn) [compound 1065]: the IC50 was 0.05 to 10 µM. In the case of `CC(C)CC(NC(=O)Cc1ccc(NC(=O)NC2CCCCC2)cc1)C(=O)NC(CC(=O)O)c1ccc2c(c1)OCO2` (stereo not drawn) [compound 1068], the IC50 fell in the range of 0.05 to 10 µM. Under `COc1ccccc1C(CC(=O)O)NC(=O)C(CC(C)C)NC(=O)Cc1ccc(NC(=O)Nc2ccccc2)cc1` (stereo not drawn) [compound 1069] stands less than 0.05 µM; under `COc1ccccc1C(CC(=O)O)NC(=O)C(CC(C)C)NC(=O)Cc1ccc(O)cc1` (stereo not drawn) [compound 1070], 0.05 to 10 µM; under `COc1cccc(C(CC(=O)O)NC(=O)C(CC(C)C)NC(=O)Cc2ccc(NC(=O)Nc3ccccc3)cc2)c1` (stereo not drawn) [compound 1072], less than 0.05 µM. In turn, `CC(C)CC(NC(=O)Cc1ccc(NC(=O)OCc2ccccc2)cc1)C(=O)NC(CC(=O)O)c1ccc2c(c1)OCO2` (stereo not drawn) [compound 1073] had an IC50 of 0.05 to 10 µM. As for `CC(C)CC(NC(=O)Cc1ccc(NS(=O)(=O)c2ccccc2)cc1)C(=O)NC(CC(=O)O)c1ccc2c(c1)OCO2` (stereo not drawn) [compound 1074], the figure is 0.05 to 10 µM. On to `CC(C)CC(NC(=O)Cc1ccc(NC(=O)c2ccccc2)cc1)C(=O)NC(CC(=O)O)c1ccc2c(c1)OCO2` (stereo not drawn) [compound 1075], for which the IC50 was 0.05 to 10 µM.
